Assay results from patent US4156724A, “N-acylamino-alpha-arylacetamido cephalosporins and antibacterial compositions and methods containing them” (Sumitomo Chemical Company, Limited, priority 1974, dated 1979).
≈ marks a conversion by molar mass, not a printed value.

What was measured:
Format in all cases: cell-based
[1] = system: Klebsiella pneumoniae 602; assay: Minimum Inhibitory Concentration, Klebsiella pneumoniae 602; conditions: for MIC: Klebsiella pneumoniae, 602, Klebsiella pneumoniae 602, read-out: Minimum Inhibitory Concentration
Protocol: (§1) anti-microbial activity tests were carried out on the compounds obtained in the Examples.

[2] = system: Pseudomonas aeruginosa 104; assay: Minimum Inhibitory Concentration, Pseudomonas aeruginosa 104; conditions: Pseudomonas aeruginosa 104; for MIC: read-out: Minimum Inhibitory Concentration
Protocol: as §1

[3] = system: Staphylococcus aureus 209 P; assay: Minimum Inhibitory Concentration, Staphylococcus aureus 209 P; conditions: Staphylococcus aureus 209 P; for MIC: read-out: Minimum Inhibitory Concentration
Protocol: as §1

[4] = system: Escherichia coli NIHJ; assay: Minimum Inhibitory Concentration, Escherichia coli NIHJ; conditions: Escherichia coli NIHJ; for MIC: read-out: Minimum Inhibitory Concentration
Protocol: as §1

[5] = system: Staphylococcus aureus FS 289; assay: Minimum Inhibitory Concentration, Staphylococcus aureus FS 289; conditions: Staphylococcus aureus FS 289, strain resistant to penicillin; for MIC: FS289, read-out: Minimum Inhibitory Concentration
Protocol: as §1
*Staphylococcus aureus FS 289: strain resistant to penicillin

[6] = system: Proteus vulgaris HX 19; assay: Minimum Inhibitory Concentration, Proteus vulgaris HX 19; conditions: Proteus vulgaris HX 19; for MIC: HX19, read-out: Minimum Inhibitory Concentration
Protocol: as §1

[7] = system: Serratia No. 72; assay: Minimum Inhibitory Concentration, Serratia No. 72
Protocol: as §1

[8] = system: Enterobacter aerogeneus No. 75; assay: Minimum Inhibitory Concentration, Enterobacter aerogeneus No. 75; conditions: Enterobacter aerogeneus No. 75; for MIC: read-out: Minimum Inhibitory Concentration
Protocol: as §1

MIC [1]	MIC [2]	MIC [3]	MIC [4]	MIC [5]	MIC [6]	MIC [7]	MIC [8]	Compound	Minimum Inhibitory Concentration ([1]; Klebsiella pneumoniae 602)	Minimum Inhibitory Concentration [2]	Minimum Inhibitory Concentration [3]	Minimum Inhibitory Concentration [4]	Minimum Inhibitory Concentration [5]	Minimum Inhibitory Concentration [6]	Minimum Inhibitory Concentration [7]	Minimum Inhibitory Concentration [8]
3.13 µg/mL (≈ 4.6 µM)	3.13 µg/mL (≈ 4.6 µM)	0.78 µg/mL (≈ 1.15 µM)	3.13 µg/mL (≈ 4.6 µM)	6.25 µg/mL (≈ 9.19 µM)	0.2 µg/mL (≈ 0.294 µM)	12.5 µg/mL (≈ 18.4 µM)	6.25 µg/mL (≈ 9.19 µM)	CNc1nnc(SCC2=C(C(=O)O)N3C(=O)C(NC(=O)C(NC(=O)c4cnc5cccnc5c4O)c4cccc(N)c4)C3SC2)s1 (stereo not shown) [Example 78]								
3.13 µg/mL (≈ 4.6 µM)	3.13 µg/mL (≈ 4.6 µM)	0.78 µg/mL (≈ 1.15 µM)	6.25 µg/mL (≈ 9.19 µM)	12.5 µg/mL (≈ 18.4 µM)	0.2 µg/mL (≈ 0.294 µM)	12.5 µg/mL (≈ 18.4 µM)	6.25 µg/mL (≈ 9.19 µM)	NCc1nnc(SCC2=C(C(=O)O)N3C(=O)C(NC(=O)C(NC(=O)c4cnc5cccnc5c4O)c4cccc(N)c4)C3SC2)s1 (stereo not shown) [Example 79]								
3.13 µg/mL (≈ 4.69 µM)	3.13 µg/mL (≈ 4.69 µM)	0.78 µg/mL (≈ 1.17 µM)	3.13 µg/mL (≈ 4.69 µM)	6.25 µg/mL (≈ 9.37 µM)	0.2 µg/mL (≈ 0.3 µM)	12.5 µg/mL (≈ 18.7 µM)	3.13 µg/mL (≈ 4.69 µM)	Nc1cccc(C(NC(=O)c2cnc3cccnc3c2O)C(=O)NC2C(=O)N3C(C(=O)O)=C(CSc4n[nH]c(=O)s4)CSC23)c1 (stereo not shown) [Example 80]								
3.13 µg/mL (≈ 4.6 µM)	3.13 µg/mL (≈ 4.6 µM)	1.56 µg/mL (≈ 2.29 µM)	1.56 µg/mL (≈ 2.29 µM)	6.25 µg/mL (≈ 9.18 µM)	0.1 µg/mL (≈ 0.147 µM)	12.5 µg/mL (≈ 18.4 µM)	3.13 µg/mL (≈ 4.6 µM)	Nc1ccc(C(NC(=O)c2cnc3cccnc3c2O)C(=O)NC2C(=O)N3C(C(=O)O)=C(CSc4nnc(CO)s4)CSC23)cc1 (stereo not shown) [Example 81]								
1.56 µg/mL (≈ 2.4 µM)	3.13 µg/mL (≈ 4.83 µM)	0.78 µg/mL (≈ 1.2 µM)	3.13 µg/mL (≈ 4.83 µM)	6.25 µg/mL (≈ 9.63 µM)	0.1 µg/mL (≈ 0.154 µM)	12.5 µg/mL (≈ 19.3 µM)	3.13 µg/mL (≈ 4.83 µM)	Cn1nnc(SCC2=C(C(=O)O)N3C(=O)C(NC(=O)C(NC(=O)c4cnc5cccnc5c4O)c4ccc(N)cc4)C3SC2)n1 (stereo not shown) [Example 82]								
6.25 µg/mL (≈ 9.93 µM)	6.25 µg/mL (≈ 9.93 µM)	0.39 µg/mL (≈ 0.619 µM)	6.25 µg/mL (≈ 9.93 µM)	6.25 µg/mL (≈ 9.93 µM)	0.2 µg/mL (≈ 0.318 µM)	50 µg/mL (≈ 79.4 µM)	12.5 µg/mL (≈ 19.9 µM)	Nc1ccc(C(NC(=O)c2cnccc2O)C(=O)NC2C(=O)N3C(C(=O)O)=C(CSc4nnc(CO)s4)CSC23)cc1 (stereo not shown) [Example 83]								
								Nc1cccc(C(NC(=O)c2cnccc2O)C(=O)NC2C(=O)N3C(C(=O)O)=C(CSc4nnc(CO)s4)CSC23)c1 (stereo not shown) [Example 84]	3.13 µg/mL	6.25 µg/mL	0.39 µg/mL	6.25 µg/mL	6.25 µg/mL	0.2 µg/mL	50 µg/mL	12.5 µg/mL
3.13 µg/mL (≈ 5.13 µM)	6.25 µg/mL (≈ 10.3 µM)	0.39 µg/mL (≈ 0.64 µM)	6.25 µg/mL (≈ 10.3 µM)	6.25 µg/mL (≈ 10.3 µM)	0.2 µg/mL (≈ 0.328 µM)	100 µg/mL (≈ 164 µM)	25 µg/mL (≈ 41 µM)	Nc1cccc(C(NC(=O)c2cnccc2O)C(=O)NC2C(=O)N3C(C(=O)O)=C(CSc4ccc(O)nn4)CSC23)c1 (stereo not shown) [Example 85]								
6.25 µg/mL (≈ 9.91 µM)	12.5 µg/mL (≈ 19.8 µM)	0.78 µg/mL (≈ 1.24 µM)	12.5 µg/mL (≈ 19.8 µM)	6.25 µg/mL (≈ 9.91 µM)	0.39 µg/mL (≈ 0.618 µM)	50 µg/mL (≈ 79.3 µM)	12.5 µg/mL (≈ 19.8 µM)	Nc1cccc(C(NC(=O)c2ccnnc2O)C(=O)NC2C(=O)N3C(C(=O)O)=C(CSc4nnc(CO)s4)CSC23)c1 (stereo not shown) [Example 86]								
6.25 µg/mL (≈ 10.2 µM)	12.5 µg/mL (≈ 20.5 µM)	0.78 µg/mL (≈ 1.28 µM)	12.5 µg/mL (≈ 20.5 µM)	6.25 µg/mL (≈ 10.2 µM)	0.78 µg/mL (≈ 1.28 µM)	50 µg/mL (≈ 81.9 µM)	12.5 µg/mL (≈ 20.5 µM)	Nc1cccc(C(NC(=O)c2ccnnc2O)C(=O)NC2C(=O)N3C(C(=O)O)=C(CSc4ccc(O)nn4)CSC23)c1 (stereo not shown) [Example 87]								
12.5 µg/mL (≈ 20.4 µM)	12.5 µg/mL (≈ 20.4 µM)	0.78 µg/mL (≈ 1.27 µM)	12.5 µg/mL (≈ 20.4 µM)	6.25 µg/mL (≈ 10.2 µM)	0.39 µg/mL (≈ 0.637 µM)	50 µg/mL (≈ 81.6 µM)	25 µg/mL (≈ 40.8 µM)	Cn1nnnc1SCC1=C(C(=O)O)N2C(=O)C(NC(=O)C(NC(=O)c3cnccc3O)c3ccc(CO)cc3)C2SC1 (stereo not shown) [Example 91]								
12.5 µg/mL (≈ 22.4 µM)	12.5 µg/mL (≈ 22.4 µM)	0.78 µg/mL (≈ 1.4 µM)	25 µg/mL (≈ 44.8 µM)	6.25 µg/mL (≈ 11.2 µM)	0.39 µg/mL (≈ 0.7 µM)	> 200 µg/mL	25 µg/mL (≈ 44.8 µM)	CC(=O)OCC1=C(C(=O)O)N2C(=O)C(NC(=O)C(NC(=O)c3ccnnc3O)c3ccc(CO)cc3)C2SC1 (stereo not shown) [Example 92]								
12.5 µg/mL (≈ 19.9 µM)	12.5 µg/mL (≈ 19.9 µM)	0.78 µg/mL (≈ 1.24 µM)	12.5 µg/mL (≈ 19.9 µM)	12.5 µg/mL (≈ 19.9 µM)	0.2 µg/mL (≈ 0.318 µM)	50 µg/mL (≈ 79.4 µM)	25 µg/mL (≈ 39.7 µM)	Cc1nnc(SCC2=C(C(=O)O)N3C(=O)C(NC(=O)C(NC(=O)c4ccnnc4O)c4ccc(CO)cc4)C3SC2)s1 (stereo not shown) [Example 93]								
12.5 µg/mL (≈ 20.4 µM)	25 µg/mL (≈ 40.7 µM)	0.78 µg/mL (≈ 1.27 µM)	25 µg/mL (≈ 40.7 µM)	12.5 µg/mL (≈ 20.4 µM)	0.78 µg/mL (≈ 1.27 µM)	50 µg/mL (≈ 81.5 µM)	25 µg/mL (≈ 40.7 µM)	Cn1nnnc1SCC1=C(C(=O)O)N2C(=O)C(NC(=O)C(NC(=O)c3cncnc3O)c3ccc(CO)cc3)C2SC1 (stereo not shown) [Example 94]								
